Data taken from US20030190322A1, “Immunostimulating properties of a fragment of tgf-beta” (priority 2000, published 2003).
No end group written: not given here.

Key:
[1] = system: parvovirus peptide; assay: ELISA antibody titre to parvovirus peptide in rabbits, TGF-29 dose experiment with Titermax adjuvant (Example 3); format: in vivo; conditions: group with highest dose TGF-29 (20 ug) plus 100 μg parvovirus peptide and Titermax adjuvant (preparation Iris); one rabbit, bleeding T3, 6 weeks after first immunisation
Experimental: Both preparations were subcutaneously injected into 2 groups of rabbits. Each injected dose was 0.1 mL and the preparations for a resulting volume between 0.4 and 0.5 mL was made as follows:
Each injected dose of 0.1 mL therefore contains approximate 4 ug TGF-29 and 100 ug parvovirus peptide.
Into the same vial 154 microliter H2O was added and the combined fractions subsequently mixed by stirring a few seconds and then transferred in drops, while stirring, into a small 1.8 mL plast vial preloaded with 250 microliter Titermax adjuvant. The resulting volume of the water-in-oil emulsion volume was a little more than 0.4 mL. Each injected dose of 0.1 mL therefore contains approximate 20 μg TGF-29 and 100 μg parvovirus peptide.
The rabbits were then immunised according to the normal standard immunisation procedure for antibody production in rabbits at a legal laboratory animal facility.
Before immunisation, a pre-immunisation serum sample (To) of each rabbit was collected. […]
(§1) The serum samples were analysed on an ELISA plate according to standard laboratory operations: Coating the plate bottom with parvo virus peptide derivative overnight, washings, incubation with serial dilutions of all serum samples, washings, incubation with HRP-Goat anti Rabbit 1 g, washings, incubation with substrate, stop reaction with acid, and reading of the plate.

[2] = system: parvovirus peptide; assay: ELISA antibody titre to parvovirus peptide in rabbits immunised with Parv or Parv+TGF-29 (Example 1); format: in vivo; conditions: subcutaneous, 3 immunisations at 2 week intervals, freunds incomplete adjuvant
Experimental: Both preparations were subcutaneously injected into 2 groups of rabbits. The con-tent of each injected dose of 0.2 mL were;
50 microgram parvovirus peptide was dissolved in 0.05 mL PBS and subsequently mixed with 0.05 mL PBS by stirring. The combined fractions were then mixed with 0.1 mL freunds incomplete adjuvant by stirring.
50 microgram parvovirus peptide was dissolved in 0.05 mL PBS and subsequently mixed with 100 microgram of a crude fraction comprising TGF-29 dissolved in 0.05 mL PBS, and then the combined fractions were mixed with 0.1 mL freunds incomplete adjuvant by stirring,
The rabbits were immunised by subcuteous injection according to normal standard immunisation procedures for antibody production in rabbits at a legal laboratory animal facility.
Before immunisation, a pre-immunisation serum sample (T0) of each rabbit were collected. Two weeks after the last of 3 immunisations (given at 2 week intervals) an immune serum sample (T1) was collected from each rabbit. […]
as §1, with “operations.” for “operations:”

| Substance | titer to the parvovirus peptide compared with T0 serum (highest of all bleedings) [1] | antibody titre to the parvovirus peptide, immune serum samples compared with T0 sera [2] |
| --- | --- | --- |
| ALDAAYCFRNVQDNCCLRPLYIDFKRDLG (cysteine pairing not given here) [TGF-29] | more than three 5-fold serial antiserum dilutions better than the corresponding T0 serum |  |
| acetyl-CDGAVQPDGGQPAVRNER-amide (Ac-CDGAVQPDGGQPAVRNER-NH2) [Parv] |  | Non-detectable or less antibody titre to the parvovirus peptide than in the corresponding to sera |
